In patent US20220235011A1, “PHTHALAZINONE COMPOUNDS AND USE THEREOF” (ST PHARM CO., LTD., priority 2019, published 2022):

Biological target: T1, Sirt6 (Homo sapiens, UniProt Q8N6T7)
T1 construct: purchased CycLex CY-1156V2
Assay: Measurement of Sirt6 Activity (CycLex Sirt6 Deacetylase Fluorometric Assay Kit)
Format: biochemical
Conditions: compound at 10 μM, fluorescence relative to the group without compound treatment (positive control group)
Procedure, shortened: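 Recombinant Sirt6 with fluoro-labelled acetyl-lysine peptide, NAD and lysylendopeptidase developer, compound added from 10× stock in PBS; 1 h at room temperature. Fluorescence read at ex 490/em 530 nm; activation expressed as fluorescence ratio relative to enzyme without compound.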

T1 sequence (Q8N6T7 whole entry): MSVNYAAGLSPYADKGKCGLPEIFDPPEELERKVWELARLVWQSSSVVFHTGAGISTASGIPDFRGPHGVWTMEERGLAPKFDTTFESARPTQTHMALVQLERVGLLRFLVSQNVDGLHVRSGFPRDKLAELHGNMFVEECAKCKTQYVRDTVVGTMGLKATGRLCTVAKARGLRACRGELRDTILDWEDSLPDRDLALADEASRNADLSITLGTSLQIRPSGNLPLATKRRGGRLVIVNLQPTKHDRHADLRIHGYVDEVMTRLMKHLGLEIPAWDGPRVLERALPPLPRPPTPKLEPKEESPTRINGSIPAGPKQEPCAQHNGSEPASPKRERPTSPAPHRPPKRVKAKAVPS

Compound	Sirt6 Activity (% activity, 10 μM)	Sirt6 Activity (% activity, 10 μM) (10 µM)
CC(C)(CN)c1cccc(-c2nn(-c3ccc(F)cc3F)c(=O)c3ccccc23)c1.Cl [Example 204, 4-(3-(1-Amino-2-methylpropan-2-yl)phenyl)-2-(2,4-difluorophenyl)phthalazin-1(2H)-one-hydro Chloride]	161.50 % activity	–
CC(C)(C(=O)O)C1CCCN(c2nn(-c3ccc(F)cc3F)c(=O)c3ccccc23)C1 (stereo not drawn) [Example 205, 2-(1-(3-(2,4-Difluorophenyl)-4-oxo-3,4-dihydrophthalazin-1-yl)piperidin-3-yl)-2-methylpropanoic Acid]	–	105.70 % activity
CC(C)(C(=O)O)c1cccc(-c2nn(-c3ccc(C4CC4)cc3)c(=O)c3ccccc23)c1 [Example 206, 2-(3-(3-(4-Cyclopropylphenyl)-4-oxo-3,4-dihydrophthalazin-1-yl)phenyl)-2-methylpropanoic Acid]	182.70 % activity	–
O=C(O)C1(c2cccc(-c3nn(-c4ccc(F)cc4F)c(=O)c4ccccc34)c2)CCC1 [Example 207, 1-(3-(3-(2,4-Difluorophenyl)-4-oxo-3,4-dihydrophthalazin-1-yl)phenyl)cyclobutane-1-carboxylic Acid]	309.90 % activity	–
O=C(O)C1(c2cccc(-c3nn(-c4ccc(F)cc4F)c(=O)c4ccccc34)c2)CCCC1 [Example 208, 1-(3-(3-(2,4-Difluorophenyl)-4-oxo-3,4-dihydrophthalazin-1-yl)phenyl)cyclopentane-1-carboxylic Acid]	117.30 % activity	–
CC(C)(C(=O)O)C1CCCN(c2nn(-c3ccc(Cl)cc3)c(=O)c3ccccc23)C1 (stereo not drawn) [Example 209, 2-(1-(3-(4-Chlorophenyl)-4-oxo-3,4-dihydrophthalazin-1-yl)piperidin-3-yl)-2-methylpropanoic Acid]	169.10 % activity	–
CC(C)(C(=O)O)C1CCCN(c2nn(-c3ccc(F)cc3F)c(=O)c3ccccc23)C1 (stereo not drawn) [Example 210-1, 2-(1-(3-(2,4-Difluorophenyl)-4-oxo-3,4-dihydrophthalazin-1-yl)piperidin-3-yl)-2-methylpropanoic Acid]	–	199.00 % activity
CC(C)(C(=O)O)C1CCCN(c2nn(-c3ccc(F)cc3F)c(=O)c3ccccc23)C1 (stereo not drawn) [Example 210-2, 2-(1-(3-(2,4-Difluorophenyl)-4-oxo-3,4-dihydrophthalazin-1-yl)piperidin-3-yl)-2-methylpropanoic Acid]	–	100.50 % activity
COC(=O)C1(C2CCCN(c3nn(-c4ccc(F)cc4F)c(=O)c4ccccc34)C2)CC1 (stereo not drawn) [Example 211, Methyl 1-(1-(3-(2,4-difluorophenyl)-4-oxo-3,4-dihydrophthalazin-1-yl)piperidin-3-yl)cyclopropan-1-carboxylate]	170.00 % activity	–
O=C(O)C1(C2CCCN(c3nn(-c4ccc(F)cc4F)c(=O)c4ccccc34)C2)CC1 (stereo not drawn) [Example 212, 1-(1-(3-(2,4-Difluorophenyl)-4-oxo-3,4-dihydrophthalazin-1-yl)piperidin-3-yl)cyclopropan-1-carboxylic Acid]	–	170.10 % activity
O=C(O)C1(C2CCCN(c3nn(-c4ccc(F)cc4F)c(=O)c4ccccc34)C2)CC1 (stereo not drawn) [Example 213-1, 1-(1-(3-(2,4-Difluorophenyl)-4-oxo-3,4-dihydrophthalazin-1-yl)piperidin-3-yl)cyclopropan-1-carboxylic Acid]	–	168.10 % activity
O=C(O)C1(C2CCCN(c3nn(-c4ccc(F)cc4F)c(=O)c4ccccc34)C2)CC1 (stereo not drawn) [Example 213-2, 1-(1-(3-(2,4-Difluorophenyl)-4-oxo-3,4-dihydrophthalazin-1-yl)piperidin-3-yl)cyclopropan-1-carboxylic Acid]	–	102.60 % activity
O=c1c2ccccc2c(-c2cccc(S(=O)(=O)N3CCCC3)c2)nn1-c1ccc(F)cc1F [Example 214, 2-(2,4-Difluorophenyl)-4-(3-(pyrrolidin-1-ylsulfonyl)phenyl)phthalazin-1(2H)-one]	233.90 % activity	–
Cl.O=c1c2ccccc2c(C2=CCNCC2)nn1-c1ccc(F)cc1F [Example 215, 2-(2,4-Difluorophenyl)-4-(1,2,3,6-tetrahydropyridin-4-yl)phthalazin-1(2H)-one-hydrochloride]	226.60 % activity	–
CCN(C)S(=O)(=O)c1cccc(-c2nn(-c3ccc(F)cc3F)c(=O)c3ccccc23)c1 [Example 216, 3-(3-(2,4-Difluorophenyl)-4-oxo-3,4-dihydrophthalazin-1-yl)-N-ethyl-N-methylbenzenesulfonamide]	184.80 % activity	–
CCN(CC)S(=O)(=O)c1cccc(-c2nn(-c3ccc(F)cc3F)c(=O)c3ccccc23)c1 [Example 217, 3-(3-(2,4-Difluorophenyl)-4-oxo-3,4-dihydrophthalazin-1-yl)-N,N-diethylbenzenesulfonamide]	185.10 % activity	–
CCS(=O)(=O)N1CC=C(c2nn(-c3ccc(F)cc3F)c(=O)c3ccccc23)CC1 [Example 218, 2-(2,4-Difluorophenyl)-4-(1-(ethylsulfonyl)-1,2,3,6-tetrahydropyridin-4-yl)phthalazin-1(2H)-one]	176.50 % activity	–
CC(C)(C(=O)O)C1CN(c2nn(-c3ccc(F)cc3F)c(=O)c3ccccc23)CCN1 (stereo not drawn) [Example 219, 2-(4-(3-(2,4-Difluorophenyl)-4-oxo-3,4-dihydrophthalazin-1-yl)piperazin-2-yl)-2-methylpropanoic Acid]	114.60 % activity	–
CN1CCN(c2nn(-c3ccc(F)cc3F)c(=O)c3ccccc23)CC1C(C)(C)C(=O)O (stereo not drawn) [Example 220, 2-(4-(3-(2,4-Difluorophenyl)-4-oxo-3,4-dihydrophthalazin-1-yl)-1-methylpiperazin-2-yl)-2-methylpropanoic Acid]	125.80 % activity	–
CC(C)(C(=O)O)C1CN(c2nn(-c3ccc(F)cc3F)c(=O)c3ccccc23)CCO1 (stereo not drawn) [Example 221, 2-(4-(3-(2,4-Difluorophenyl)-4-oxo-3,4-dihydrophthalazin-1-yl)morpholin-2-yl)-2-methylpropanoic Acid]	125.50 % activity	–
N-(3-(4-Oxo-3-(tetrahydro-2H-pyran-4-yl)-3,4-dihydrophthalazin-1-yl)phenyl)ethanesulfonamide [Example 151]	145.64 % activity	–
